Read-outs that look alike come from different tables or passages of the source.
Columns and labels:
human DGKζ = target: T1, human DGKζ (Homo sapiens, UniProt Q13574); test: DGKζ LIPGLO assay (extruded liposome substrate), in vitro DGK inhibition; format: biochemical; conditions: liposome (LIPGLO) assay; read-out: DGKz LIPGLO IC50
T1 construct: TVMV protease cleavage site (C); Hexa-His (C); made in house; host or cells: Sf9 insect cells (baculovirus, Bac-to-Bac)

Human venous whole blood = test: Human whole blood IFN-γ assay; format: cell-based; conditions: human whole blood, normalized to 3 μM reference compound with anti-CD3 plus anti-CD28 as 100% activation, read-out: INFg Whole Blood Normalized Agonist EC50;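 note: blood from healthy donors exposed to compound for 1 h before stimulation with anti-CD3 and anti-CD28 at 1 µg/mL each, IFN-γ quantified in supernatant by AlphaLISA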
human DGKα = target: T2, human DGKα (Homo sapiens, UniProt P23743); test: DGKα LIPGLO assay (extruded liposome substrate), in vitro DGK inhibition; format: biochemical; conditions: liposome (LIPGLO) assay; read-out: DGKa LIPGLO IC50
T2 construct: TVMV protease cleavage site (C); Hexa-His (C); made in house; host or cells: Sf9 insect cells (baculovirus, Bac-to-Bac)
T2 sequence (P23743 with tags, fused parts or gaps): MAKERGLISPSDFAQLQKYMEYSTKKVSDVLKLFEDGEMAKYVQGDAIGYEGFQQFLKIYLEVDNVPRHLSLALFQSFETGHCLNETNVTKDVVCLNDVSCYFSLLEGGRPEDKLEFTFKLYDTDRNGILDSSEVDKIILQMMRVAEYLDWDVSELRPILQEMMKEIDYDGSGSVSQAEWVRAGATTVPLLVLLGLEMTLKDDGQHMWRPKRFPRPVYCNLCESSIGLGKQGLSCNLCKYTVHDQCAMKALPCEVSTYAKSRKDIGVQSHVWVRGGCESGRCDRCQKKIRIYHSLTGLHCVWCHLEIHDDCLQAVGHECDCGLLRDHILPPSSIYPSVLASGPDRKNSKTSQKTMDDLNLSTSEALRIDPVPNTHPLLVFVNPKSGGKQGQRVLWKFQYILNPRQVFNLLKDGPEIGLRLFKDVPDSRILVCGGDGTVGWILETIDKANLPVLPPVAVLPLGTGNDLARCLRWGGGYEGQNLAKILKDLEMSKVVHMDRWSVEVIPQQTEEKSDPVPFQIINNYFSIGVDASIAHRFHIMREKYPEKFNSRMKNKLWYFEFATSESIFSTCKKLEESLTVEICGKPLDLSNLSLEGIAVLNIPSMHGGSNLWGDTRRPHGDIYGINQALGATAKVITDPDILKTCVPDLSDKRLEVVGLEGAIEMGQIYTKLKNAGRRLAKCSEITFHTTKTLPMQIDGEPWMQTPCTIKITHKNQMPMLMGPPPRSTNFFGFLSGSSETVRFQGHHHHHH

T1 sequence (Q13574 with tags, fused parts or gaps isoform Q13574-4): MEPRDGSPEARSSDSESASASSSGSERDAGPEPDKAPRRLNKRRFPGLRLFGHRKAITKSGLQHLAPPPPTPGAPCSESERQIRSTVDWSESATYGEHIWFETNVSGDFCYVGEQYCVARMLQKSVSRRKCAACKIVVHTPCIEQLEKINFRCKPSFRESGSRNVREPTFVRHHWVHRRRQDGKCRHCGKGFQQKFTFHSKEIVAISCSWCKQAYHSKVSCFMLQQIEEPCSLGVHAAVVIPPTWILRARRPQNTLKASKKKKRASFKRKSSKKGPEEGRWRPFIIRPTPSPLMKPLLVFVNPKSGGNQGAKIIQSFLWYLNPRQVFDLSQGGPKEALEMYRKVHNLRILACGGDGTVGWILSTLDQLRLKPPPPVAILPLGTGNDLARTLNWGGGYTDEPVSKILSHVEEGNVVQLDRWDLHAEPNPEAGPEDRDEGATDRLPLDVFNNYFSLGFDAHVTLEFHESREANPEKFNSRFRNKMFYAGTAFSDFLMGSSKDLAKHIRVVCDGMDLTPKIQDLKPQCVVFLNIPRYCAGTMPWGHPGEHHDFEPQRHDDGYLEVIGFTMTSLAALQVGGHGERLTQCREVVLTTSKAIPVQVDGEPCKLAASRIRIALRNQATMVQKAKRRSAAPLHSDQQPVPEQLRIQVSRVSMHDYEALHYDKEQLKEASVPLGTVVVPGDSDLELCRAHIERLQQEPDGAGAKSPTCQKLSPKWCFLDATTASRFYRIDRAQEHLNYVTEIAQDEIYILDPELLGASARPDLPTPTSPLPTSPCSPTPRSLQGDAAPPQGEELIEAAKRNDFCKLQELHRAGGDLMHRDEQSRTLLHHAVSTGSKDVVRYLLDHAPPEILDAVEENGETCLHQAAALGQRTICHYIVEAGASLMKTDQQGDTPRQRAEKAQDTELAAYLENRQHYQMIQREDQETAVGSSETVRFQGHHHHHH

Structure (SMILES)	IC50 (human DGKζ) [nM]	IC50 (human DGKα) [nM]	EC50 (Human venous whole blood; Homo sapiens, 24 h) [µM]	EC50 (Human venous whole blood) [µM]
C[C@@H]1CN(c2cc(=O)n(C)c3ccc(C#N)nc23)[C@@H](C)CN1C(c1ccc(Cl)cc1)c1ccc(F)c2c1OC(C)(C)C2 (single isomer, unassigned) [Example 458]	110	1100	0.51	–
Cc1ccc(C(c2cc(C)ccn2)N2C[C@H](C)N(c3cc(=O)n(C)c4ccc(C#N)nc34)C[C@H]2C)cc1 (single isomer, unassigned) [Example 461]	3600	1400	–	2.1
C[C@@H]1CN(c2cc(=O)n(C)c3ccc(C#N)nc23)[C@@H](C)CN1C(c1ccc(C#N)cc1)c1ccc(F)cn1 (single isomer, unassigned) [Example 463]	4600	330	–	3.7
C[C@@H]1CN(c2cc(=O)n(C)c3ccc(C#N)nc23)[C@@H](C)CN1C(c1ccc(F)cn1)c1cccc2c1OC(C)(C)C2 (single isomer, unassigned) [Example 465]	980	200	20	–
Cc1cccc(C(c2cccc(F)c2)N2C[C@H](C)N(c3cc(=O)n(C)c4ccc(C#N)nc34)C[C@H]2C)n1 (single isomer, unassigned) [Example 470]	2000	13000	0.37	–
C[C@@H]1CN(c2cc(=O)n(C)c3ccc(C#N)nc23)[C@@H](C)CN1C(c1ccc(F)cc1)c1cc(F)ccn1 (single isomer, unassigned) [Example 474]	1200	260	–	0.26
C[C@@H]1CN(c2cc(=O)n(C)c3ccc(C#N)nc23)[C@@H](C)CN1C(c1ccc(OC(F)(F)F)cc1F)C1CC1 (single isomer, unassigned) [Example 480]	1800	1600	4.9	–
CC[C@@H]1CN(c2cc(=O)n(C)c3ccc(C#N)nc23)[C@@H](C)CN1C(C)c1ccc(OC)cc1 (single isomer, unassigned) [Example 482]	170	130	–	0.29
CC[C@@H]1CN(c2cc(=O)n(C)c3ccc(C#N)nc23)[C@@H](C)CN1C(C)c1ccc(OC)cc1 (single isomer, unassigned) [Example 483]	3900	3300	–	4.3
C[C@@H]1CN(c2cc(=O)n(C)c3ccc(C#N)nc23)[C@@H](C)CN1C(CO)c1ccc(F)cc1 (single isomer, unassigned) [Example 557]	5300	500	–	1.6
C[C@@H]1CN(c2cc(=O)n(C)c3ccc(C#N)nc23)[C@@H](C)CN1C(CO)c1ccc(F)cc1 (single isomer, unassigned) [Example 558]	100000	10000	–	15
[2H]C(CC)(c1ccc(F)cc1)N1C[C@H](C)N(c2cc(=O)n(C)c3ccc(C#N)nc23)C[C@H]1C (single isomer, unassigned) [Example 574]	28000	1800	–	7.3
C[C@@H]1CN(c2cc(=O)n(C)c3ccc(C#N)nc23)[C@@H](C)CN1C(c1c(F)cc(O)cc1F)C(F)(F)F (single isomer, unassigned) [Example 627]	5900	5400	5.1	–
C[C@@H]1CN(c2cc(=O)n(C)c3ccc(C#N)nc23)[C@@H](C)CN1C(c1c(F)cc(O)cc1F)C(F)(F)F (single isomer, unassigned) [Example 628]	7400	5900	–	4.8
CC(c1cccc(C(F)(F)F)n1)N1C[C@H](C)N(c2cc(=O)n(C)c3ccc(C#N)nc23)C[C@H]1C (single isomer, unassigned) [Example 637]	840	170	–	10
CC(c1cccc2ncccc12)N1C[C@H](C)N(c2cc(=O)n(C)c3ccc(C#N)nc23)C[C@H]1C (single isomer, unassigned) [Example 638]	1800	110000	20	–
CC(c1cccc2ncccc12)N1C[C@H](C)N(c2cc(=O)n(C)c3ccc(C#N)nc23)C[C@H]1C (single isomer, unassigned) [Example 639]	18000	98000	–	20
CC(c1ccc(F)cn1)N1C[C@H](C)N(c2cc(=O)n(C)c3ccc(C#N)nc23)C[C@H]1C (single isomer, unassigned) [Example 640]	3900	36	–	1.6
CC(c1ccc(F)cn1)N1C[C@H](C)N(c2cc(=O)n(C)c3ccc(C#N)nc23)C[C@H]1C (single isomer, unassigned) [Example 641]	15000	1700	–	5.9
CC(c1ccc(C(F)(F)F)cn1)N1C[C@H](C)N(c2cc(=O)n(C)c3ccc(C#N)nc23)C[C@H]1C (single isomer, unassigned) [Example 643]	1600	310	–	5.3
COc1ccc(C(C)N2C[C@H](C)N(c3cc(=O)n(C)c4ccc(C#N)nc34)C[C@H]2C)nc1 (single isomer, unassigned) [Example 644]	500	160	–	3.8
CC(c1nc(C2CC2)cs1)N1C[C@H](C)N(c2cc(=O)n(C)c3ccc(C#N)nc23)C[C@H]1C (single isomer, unassigned) [Example 646]	2700	1600	6.7	–
CC(c1nc(C2CC2)cs1)N1C[C@H](C)N(c2cc(=O)n(C)c3ccc(C#N)nc23)C[C@H]1C (single isomer, unassigned) [Example 647]	75	220	–	5.2
Cc1cc(C(C)N2C[C@H](C)N(c3cc(=O)n(C)c4ccc(C#N)nc34)C[C@H]2C)no1 (single isomer, unassigned) [Example 649]	3400	3600	20	–

The remaining molecules from weak to strong by IC50 (human DGKζ), led by results:

IC50 (human DGKζ) [nM]	IC50 (human DGKα) [nM]	Structure (SMILES)	EC50 (Human venous whole blood; Homo sapiens, 24 h) [µM]	EC50 (Human venous whole blood) [µM]
19000	5500	C[C@@H]1CN(c2cc(=O)n(C)c3ccc(C#N)nc23)[C@@H](C)CN1C(c1c(F)cc(O)cc1F)C(F)(F)F (single isomer, unassigned) [Example 592]	3.6	–
18000	1900	COc1ccc(C(C)N2C[C@H](C)N(c3cc(=O)n(C)c4ccc(C#N)nc34)C[C@H]2C)nc1 (single isomer, unassigned) [Example 645]	–	17
8000	12000	CC(c1cccc(C(F)(F)F)n1)N1C[C@H](C)N(c2cc(=O)n(C)c3ccc(C#N)nc23)C[C@H]1C (single isomer, unassigned) [Example 636]	–	3.9
6000	440	C[C@@H]1CN(c2cc(=O)n(C)c3ccc(C#N)nc23)[C@@H](C)CN1C(c1ccc(F)cc1)C(F)(F)F (single isomer, unassigned) [Example 582]	–	1.7
4000	1700	C[C@@H]1CN(c2cc(=O)n(C)c3ccc(C#N)nc23)[C@@H](C)CN1C(c1ccc(F)cc1)c1cc(F)ccn1 (single isomer, unassigned) [Example 473]	–	0.88
3900	3100	C[C@@H]1CN(c2cc(=O)n(C)c3ccc(C#N)nc23)[C@@H](C)CN1Cc1ccc(OC(F)(F)F)cc1F (single isomer, unassigned) [Example 591]	19	–
2700	65	COCC(c1ccc(F)cc1)N1C[C@H](C)N(c2cc(=O)n(C)c3ccc(C#N)nc23)C[C@H]1C (single isomer, unassigned) [Example 559]	0.27	–
2400	2100	Cc1ccc(C(c2cccc(F)n2)N2C[C@H](C)N(c3cc(=O)n(C)c4ccc(C#N)nc34)C[C@H]2C)cc1 (single isomer, unassigned) [Example 478]	3.8	–
1900	910	Cc1ccc(C(c2cccc(F)n2)N2C[C@H](C)N(c3cc(=O)n(C)c4ccc(C#N)nc34)C[C@H]2C)cc1 (single isomer, unassigned) [Example 479]	–	2.1
1800	190	C[C@@H]1CN(c2cc(=O)n(C)c3ccc(C#N)nc23)[C@@H](C)CN1C(c1ccc(OC(F)(F)F)cc1)c1ccc(F)cn1 (single isomer, unassigned) [Example 466]	–	5.5
1600	140	C[C@@H]1CN(c2cc(=O)n(C)c3ccc(C#N)nc23)[C@@H](C)CN1C(c1ccc(OC(F)(F)F)cc1)c1ccc(F)cn1 (single isomer, unassigned) [Example 468]	–	1.3
1600	180	[2H]C(CC)(c1ccc(F)cc1)N1C[C@H](C)N(c2cc(=O)n(C)c3ccc(C#N)nc23)C[C@H]1C (single isomer, unassigned) [Example 575]	–	0.36
950	100	C[C@@H]1CN(c2cc(=O)n(C)c3ccc(C#N)nc23)[C@@H](C)CN1C(c1ccc(F)cc1)C(F)(F)F (single isomer, unassigned) [Example 583]	–	0.46
510	1700	Cc1ccc(C(c2cccc3c2OCCCO3)N2C[C@H](C)N(c3cc(=O)n(C)c4ccc(C#N)nc34)C[C@H]2C)nc1 (single isomer, unassigned) [Example 469]	–	3.2
450	980	C[C@@H]1CN(c2cc(=O)n(C)c3ccc(C#N)nc23)[C@@H](C)CN1C(c1ccc(F)cn1)c1cccc2c1OC(C)(C)C2 (single isomer, unassigned) [Example 467]	–	20

From patent US10669272B2, “Substituted naphthyridinone compounds useful as T cell activators” (BRISTOL-MYERS SQUIBB COMPANY, priority 2018, dated 2020)
